Where two headings read alike, the source gives them in different places.
Experiments:
[1] = tested on: HCT-15 cells; experiment: antiproliferation assay, paclitaxel-resistant HCT-15; format: cell-based; conditions: Homo sapiens
Procedure: (§1) For the antiproliferation assay, NCI-H460 (large cell lung carcinoma) or M14 (amelanotic melanoma) cells were grown in RPMI-1640 with 10% FBS supplemented with L-glutamine and HEPES. Cells were seeded into 96-well plates at 5×10^2 to 5×10^4 cells/well and allowed to adhere overnight; the medium was then removed. A stock solution of test compound in DMSO was diluted in medium to generate a series of working solutions. Aliquots (100 μl) of the working solutions were then added to the appropriate test wells to expose cells to the final concentrations of compound in a total volume of 100 μl. Seven different concentrations were tested, with 2-5 wells per concentration. Camptothecin was used as a positive control; wells containing vehicle without compound were used as negative controls. Plates were kept for 72 h in a 37° C., 5% CO2 incubator. After incubation, viable cells were detected with the CELLTITER 96 AQueous Non-Radioactive Cell Proliferation Assay (Promega), and IC50 values were determined using GraphPad Prism 5 software.
(§2) Compound 4 was tested for antiproliferation activity against several paclitaxel-resistant human cancer cell lines.

[2] = tested on: TK-10 cells; experiment: antiproliferation assay, paclitaxel-resistant TK-10; format: cell-based; conditions: Homo sapiens
Procedure: as §1, §2

[3] = tested on: MES-SA/Dx5 cells; experiment: antiproliferation assay, MES-SA/Dx5; format: cell-based; conditions: Homo sapiens
Procedure: as §1
(§3) Antiproliferation of several of the active compounds was tested against additional cell lines.
as §2

[4] = tested on: EKVX cells; experiment: antiproliferation assay, paclitaxel-resistant EKVX; format: cell-based; conditions: Homo sapiens
Procedure: as §1, §2

[5] = tested on: UO-31 cells; experiment: antiproliferation assay, paclitaxel-resistant UO-31; format: cell-based; conditions: Homo sapiens
Procedure: as §1, §2

[6] = tested on: NCI/ADR-RES cells; experiment: antiproliferation assay, NCI/ADR-RES; format: cell-based; conditions: Homo sapiens
Procedure: as §1, §3, §2

[7] = tested on: DLD-1 cells; experiment: antiproliferation assay, paclitaxel-resistant DLD-1; format: cell-based; conditions: Homo sapiens
Procedure: as §1, §2

[8] = tested on: ACHN cells; experiment: antiproliferation assay, paclitaxel-resistant ACHN; format: cell-based; conditions: Homo sapiens
Procedure: as §1, §2

[9] = tested on: M14 (amelanotic melanoma) cells; experiment: antiproliferation assay (72 h, CELLTITER 96), M14; format: cell-based, human; conditions: Homo sapiens
Outline: (§4)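 Human M14 melanoma and NCI-H460 lung carcinoma cells in RPMI-1640/10% FBS, seeded at 5×10^2–5×10^4 cells/well and adhered overnight, then exposed to seven compound concentrations for 72 h at 37 °C. Viable cells read by CellTiter 96 AQueous (MTS); IC50 = concentration giving 50% of maximal growth inhibition.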

[10] = tested on: MOLT-4 cells; experiment: antiproliferation assay, MOLT-4; format: cell-based; conditions: Homo sapiens
Procedure: as §1, §3

[11] = tested on: LOX-IMVI cells; experiment: antiproliferation assay, LOX-IMVI; format: cell-based; conditions: Homo sapiens
Procedure: as §1, §3

[12] = tested on: SK-Mel-2 cells; experiment: antiproliferation assay, SK-Mel-2; format: cell-based; conditions: Homo sapiens
Procedure: as §1, §3

[13] = tested on: OVCAR-3 cells; experiment: antiproliferation assay, OVCAR-3; format: cell-based; conditions: Homo sapiens
Procedure: as §1, §3

[14] = tested on: K-562 cells; experiment: antiproliferation assay, K-562; format: cell-based; conditions: Homo sapiens, K562
Procedure: as §1, §3

[15] = tested on: NCI-H460 (large cell lung carcinoma) cells; experiment: antiproliferation assay (72 h, CELLTITER 96), NCI-H460; format: cell-based, human; conditions: Homo sapiens
Outline: as §4

[16] = tested on: NCI-H187 cells; experiment: antiproliferation assay, NCI-H187; format: cell-based; conditions: Homo sapiens
Procedure: as §1, §3

[17] = tested on: OVCAR-4 cells; experiment: antiproliferation assay, OVCAR-4; format: cell-based; conditions: Homo sapiens
Procedure: as §1, §3

[18] = NCI-H460, Table 3, read-out: NCI-H460 IC50

Row | IC50 [10] [nM] | IC50 [13] [nM] | IC50 [14] [nM] | IC50 ([9]; Table 3) [nM] | IC50 [16] [nM] | IC50 [15, 18] [nM] | SMILES | IC50 ([3]; MES-SA/Dx5, MES-SA/Dx5) [nM] | IC50 [6] [nM] | IC50 [11] [nM] | also measured
1 | 83 | 57 | 25 | – | – | – | C=CC[C@H]1C[C@]2([C@@H](C)Cc3ccc(OC)c(C(N)=O)c3)OCOC2=CC1=O [Compound 29, 5-((S)-2-((3aR,5S)-5-allyl-6-oxo-3a,4,5,6-tetrahydrobenzo[d][1,3]dioxol-3a-yl)propyl)-2-methoxybenzamide] | 31 | 44 | 26 | IC50 ([9]; Table 4): 12 nM; IC50 [12]: 9.2 nM; IC50 ([15]; NCI-H460, Table 4, read-out: NCI-H460 IC50): 66 nM
2 | 120 | – | – | – | – | – | CCC[C@H]1C[C@]2([C@H](C)Cc3cc(F)c(OC)cc3F)OCOC2=CC1=O [Compound 61, (6S,7aR)-7a-((R)-1-(2,5-difluoro-4-methoxyphenyl)propan-2-yl)-6-propyl-7,7a-dihydrobenzo[d][1,3]dioxol-5(6H)-one] | 84 | 63 | 53 | IC50 ([9]; Table 7): 17 nM; IC50 [17]: 37 nM; IC50 ([15]; NCI-H460, Table 7, read-out: NCI-H460 IC50): 140 nM

Further lines, the compound ahead of its results:

Row | SMILES | IC50 [10] [nM] | IC50 [13] [nM] | IC50 [14] [nM] | IC50 ([9]; Table 3) [nM] | IC50 [16] [nM] | IC50 [15, 18] [nM] | IC50 ([3]; MES-SA/Dx5, MES-SA/Dx5) [nM] | IC50 [6] [nM] | IC50 [11] [nM] | also measured
3 | CC(=O)O[C@H]1C(=O)[C@@]2(C)[C@H]([C@H](OC(=O)c3ccccc3)[C@]3(O)C[C@H](OC(=O)[C@H](O)[C@@H](NC(=O)c4ccccc4)c4ccccc4)C(C)=C1C3(C)C)[C@]1(OC(C)=O)CO[C@@H]1C[C@@H]2O [paclitaxel, reference compound] | – | – | – | – | – | – | – | – | – | IC50 [1]: 165 nM; IC50 [2]: 80 nM; IC50 ([3]; MES-SA/Dx5, paclitaxel-resistant MES-SA/Dx5): 5000 nM; IC50 [4]: 150 nM; IC50 [5]: 240 nM; IC50 ([6]; paclitaxel-resistant NCI/ADR-RES): 9600 nM; IC50 [7]: 90 nM; IC50 [8]: 90 nM
4 | C=CC[C@H]1C[C@]2([C@@H](C)Cc3ccc(OC)cc3F)OCOC2=CC1=O (relative stereo) [Compound 2, 6-allyl-7a-(1-(2-fluoro-4-methoxyphenyl)propan-2-yl)-7,7a-dihydrobenzo[d][1,3]dioxol-5(6H)-one] | 110 | 60 | 76 | 11 | 91 | 88 | 52 | 45 | 56 | IC50 ([15]; NCI-H460, as quoted in the pharmacokinetics text, read-out: IC50 against NCI-H460 human lung cancer cells): 90 nM
5 | C=CC[C@H]1C[C@]2([C@H](C)Cc3cc(F)c(OC)cc3F)OCOC2=CC1=O (relative stereo) [Compound 6, 6-allyl-7a-(1-(2,5-difluoro-4-methoxyphenyl)propan-2-yl)-7,7a-dihydrobenzo[d][1,3]dioxol-5(6H)-one] | 81 | 38 | 28 | 10 | 22 | 35 | 14 | 13 | 18 | –

Source: patent publication US9562031B1, “Phenethyldihydrobenzodioxolones and methods of use” (Sequoia Sciences, Inc., priority 2015, dated 2017)
